The numbers were not newly measured in paper PMC7998589, “A Radiobrominated Tyrosine Kinase Inhibitor for EGFR with L858R/T790M Mutations in Lung Carcinoma” (Pharmaceuticals, 2021), which cites them from elsewhere.

Design in all cases: method as in PMID 32599930
Data set [1] deals with H441 (wild-type EGFR). The conditions noted are these: WST-8, ref [9]; cited from earlier work. For orientation: Formazan colour is commonly taken as a measure of viable cells.
Data set [2] has as its system EGFR L858R/T790M. To be noted: ref [9]; cited from earlier work.
Data set [3] relates to H1975 (EGFR L858R/T790M). The conditions noted are these: WST-8, ref [9]; cited from earlier work.
The subject of data set [4] is H3255 (EGFR L858R). To be noted: WST-8, ref [9]; cited from earlier work.

In the case of `C=CC(=O)Nc1cccc(Nc2nc(Nc3ccc(N4CCN(C(C)=O)CC4)cc3OC)ncc2C(F)(F)F)c1` [CO-1686, rociletinib], the IC50 in data set [1] is 260 ± 40 nM; in data set [3], 140 ± 50 nM; in data set [4] it was 150 ± 20 nM. Further, in data set [2], the “selectivity toward EGFR L858R/T790M compared with wild-type EGFR” value is given as “high selectivity”.
For the compound `C=CC(=O)Nc1cc(I)cc(Nc2nc(Nc3ccc(N4CCN(C(C)=O)CC4)cc3OC)ncc2C(F)(F)F)c1` [ICO1686], the figures for the IC50 in data set [1], in data set [3] and in data set [4] were 1840 ± 440 nM, 200 ± 50 nM and 500 ± 210 nM, respectively. Also, the “selectivity toward EGFR L858R/T790M compared with wild-type EGFR” value in data set [2] is “high selectivity”.

What is called IC50 is the concentration at which inhibition is half-maximal.
